The values below come from patent publication US20230015647A1, “INHIBITORS OF HISTONE DEMETHYLASES (PFI-63 AND PFI-90) FOR THE TREATMENT OF CANCER AND FOR THE INHIBITION OF HISTONE DEMETHYLASE IN CELLS” (The United States of America,as represented by the …, priority 2019, published 2023).

Data set [1] has as its system RH4 cells. In words: Caspase 3 apoptosis assay in RH4 cells. The format is cell-based, human. An excerpt:
(§1) The impact of PFI-63 and PFI-90 on apoptosis in rhabdomyosarcoma cells was investigated by assaying caspase 3 levels in the cells, and by annexin V staining.

Data set [2] deals with rhabdomyosarcoma cells (i.e. RH4 and RH30 cells). The data set can be described thus: Cell confluence / cell number, rhabdomyosarcoma cells taken together. The format is cell-based. The protocol:
Among the 64 compounds identified above, 33 compounds of unknown mechanism of action were identified.
(§2) A cell confluence assay was performed to further assess the cytotoxicity of PFI-63 in RH4 and RH30 rhabdomyosarcoma cells. Confluence data was collected via photographic images of cells treated with PFI-63 at the following time points: 24 hours, 48 hours, 72 hours, 96 hours and 120 hours. Exemplary dose response curves at 72 hours are presented as FIGS. 10 and 11 in RH4 and RH30 cells, respectively.
(§3) A cell confluence assay was performed to assess the cytotoxicity of PFI-90 in RH4 and RH30 rhabdomyosarcoma cells. Confluence data was collected via photographic images of cells treated with PFI-90 at the following time points: 24 hours, 48 hours, 72 hours, 96 hours and 120 hours. Exemplary dose response curves at 72 hours are presented as FIGS. 32 and 33 in RH4 and RH30 cells, respectively.

The nature of a further data set: Log P / solubility. In kind it is physicochemical.
The subject of data set [3] is RH4 cells. The data set can be described thus: Annexin V staining. In kind it is cell-based, human. The following applies: relative to DMSO control.
Description: as §1

Data set [4] has as its system OSA-CL osteosarcoma cells. The data set can be described thus: Cell confluence assay in OSA-CL osteosarcoma cells. The format is cell-based. The protocol: A cell confluence assay was performed to further assess the cytotoxicity of PFI-63 in OSA-CL osteosarcoma cells. Confluence data was collected via photographic images of cells treated with PFI-63 at the following time points: 24 hours, 48 hours, 72 hours, 96 hours and 120 hours. Exemplary dose response curves at 72 hours are presented as FIGS. 59 and 60 for PFI-63 and PFI-90 respectively.

The next data set relates to RH30 cells. The data set can be described thus: Cell confluence assay (cytotoxicity) in RH30 cells. The conditions noted are these: 72 hour time point. In kind it is cell-based. The protocol: as §2, §3
For data set [5], the system named is PAX3-FOXO1 fusion transcription factor. The data set can be described thus: RH4 ALK-Luc luciferase reporter assay (PAX3-FOXO1 super enhancer activity). The format is cell-based, human. The following applies: for Avg Absorbance @ 1 μM, ALK-Luc / Avg Absorbance @ 10 μM, ALK-Luc: RH4 ALK-Luc reporter. The protocol:
The screen was performed using two derivatives of RH4 FP-RMS cells: • (1) “ALK-Luc cells”—RH4 cells expressing a pGreenFire green fluorescent protein (GFP)-luciferase reporter (SEQ ID NO: 1) controlled by the PAX3-FOXO1-dependent intronic ALK super enhancer (for reporting on PAX3-FOXO1 activity) (FIGS. 1 and 2); and • (2) “CMV-Luc cells”—control RH4 cells in which the reporter is transcribed from a constitutively active cytomegalovirus (CMV) promoter. An Example of visualization via the ALK-Luc reporter is depicted in FIG. 3.
The cells were enriched for reporter expression levels and used for assay development. A high throughput screening assay was developed after optimization of cell seeding density, length of incubation of cells prior to and post treatment with test compounds, and effect of passaging among other factors. The screen was designed to identify compounds that suppressed PAX3-FOXO1 activity without disrupting viability (at a short time points) or general transcription. The assay simultaneously monitors the function of the PAX3-FOXO1 super enhancer (also referred to as “ALK super enhancer”), general transcriptional activity as well as cell viability.
The visual summary of the screening strategy is illustrated in FIG. 4. ALK-Luc cells were seeded in both white-walled and white-bottomed 384-well plates (Perkin Elmer, Cat #6007658) for luciferase assays and in clear 384-well plates (Perkin Elmer, Cat #6007688) for viability assay (XTT reduction) by transferring 27 μL of cell suspensions (seeding 3000 cells per well) into each well. The plates were then transferred into an incubator for 18-20 h. The CMV-Luc cells were similarly seeded into white plates and incubated.
A pure compound library of 62,643 compounds consisting of synthetic and natural products described previously (Grohar et al., J Natl. Cancer Inst., 103: 962-978 (2011)) was then used in a high throughput screening campaign to identify inhibitors of PAX3-FOXO1. Stock DMSO Solutions of these compounds were used to prepare 100 μM solutions in growth medium in 384-well plates also containing 16 wells each of a positive control (Actinomycin D, Sigma, Cat #A1410) and negative control (DMSO). Screening compounds along with the positive and negative controls were added to assay plates by transferring 3 μL of the prepared 100 μM dilutions using an automated liquid handler (Agilent, Bravo). Treated plates were incubated for 24 h. At the end of this period, treated plates were allowed to equilibrate to room temperature for 30 minutes. SteadyLite Plus luciferase assay reagent powder (PerkinElmer, Cat #6066759) was reconstituted in its buffer in parallel and was also allowed to equilibrate to room temperature.
After transferring 30 μL of the luciferase assay reagent using a liquid handler, plates were further incubated at room temperature for 10 minutes. Finally, luminescence measurements were carried out using a multi-label microplate reader (BMG, Pherastar FSX) set in luminescence mode. Cell viability was assessed by adding XTT reagent (10 μL per well) in clear plates containing treated ALK-Luc cells. XTT treated plates were read using a plate reader in absorbance mode at 450 nm (PerkinElmer, Envision) after further incubation for 1 hour to allow cells to metabolize XTT to a colored formazan product. Luminescence and XTT absorbance values were normalized to the average of the negative controls on each plate and were calculated as a percentage of these controls. Performance of the screening assay was routinely monitored via calculation of Z-factor (Zhang et al., J. Biomol. Screen., 4: 67-73 (1999)) with Z′ for all plates found to be >0.7.
RH4 ALK-Luc and RH4 CMV-Luc cells were seeded into separate white-walled and bottomed 384-well plates and were incubated and treated with screen hits and epigenome compounds. The highest test concentration of these compounds (10-fold) were prepared from DMSO stock solutions via dilution in medium. […]

In data set [6] the test system is RH4 cells. The data set can be described thus: Cell confluence assay (cytotoxicity) in RH4 cells. The following applies: Homo sapiens, 72 hour time point. The format is cell-based. The protocol:
as §2, §3

For data set [7], the system named is RH4 cells. In words: Western blot (MYOG, cleaved PARP, PAX3-FOXO1). The format is cell-based, human. The protocol:
The GSEA results were supported by analysis via Western blot. […] This example confirms that PFI-63 disrupts PAX3-FOXO1 super enhancer circuitry. PFI-63 is also associated with upregulation of targets associated with myogenic differentiation and apoptosis.
In RH4 cells treated with PFI-90 at 3 μM, an increase in cleaved PARP (a marker for apoptosis) is observed at 24 hours (FIG. 48). This coincides with a decrease in PAX3-FOXO1 which is also observed at 24 hours (FIG. 49).

Where [8] appears, read: 72 hour time point, read-out: IC50.
Setting [9] is: approximate, read-out: IC50 (toxic to osteosarcoma cells).

“Also recorded” adds a separate entry of the source. Like-named read-outs stand apart in the source and are kept apart here.

For the molecule `Cc1cc(C)cc(C(=O)NNC(=O)c2ccccn2)c1` [PFI-63], in the data set on RH4 cells [1], the “caspase 3” value is “increased caspase 3”. Further, the IC50 is 2 to 6 µM in data set [2] (FIGS. 8-9 (cell number by confluency, RH4, RH30, RH30.19luc), read-out: IC50); 3 to 5 µM in data set [2] (RH4 and RH30 cells, approximate, read-out: IC50 (toxic to rhabdomyosarcoma cells)); 7.57 µM in data set [4] (setting [8]); roughly 7.5 µM in data set [4] (setting [9]); 4.82 µM with RH30 cells; 3.66 µM in the data set on RH4 cells [6]. In “Log P / solubility”, the logP was 2.36. Also, in the data set with RH4 cells [3], the “cell death by annexin V staining” value is “increase in cell death”. Moreover, in data set [5], the “suppression of PAX3-FOXO1 super enhancer activity” value is listed as “significant suppression”. Also, the “Avg Absorbance @ 1 μM, ALK-Luc” value in [5] was found to be 91.4. In addition, the “Avg Absorbance @ 10 μM, ALK-Luc” value in data set [5] was determined as 40.1. For the same molecule, the “MYOG (Western blot)” value in the data set on RH4 cells [7] is “increase”. The “cleaved PARP (Western blot)” value in the data set on RH4 cells [7] was “apoptosis; also recorded: increases”.

For `O=C(NNc1ccccn1)c1ccccn1` [PFI-90], the “caspase 3” value in the data set with RH4 cells [1] is “increased caspase 3”. Further, the “cytotoxicity compared with PFI-63” value in data set [2] (rhabdomyosarcoma cells (RH4, RH30)) was “more cytotoxic to rhabdomyosarcoma cells than PFI-63”. Besides, in “Log P / solubility”, the logP is 0.82. In addition, in “Log P / solubility” (relative to PFI-63), the solubility result is “improved solubility relative to PFI-63”. In the data set on RH4 cells [3], the “cell death by annexin V staining” value was “increase in cell death”. Besides, the IC50 in data set [4] (setting [8]) is 1.9 µM; in [4] (setting [9]) it was roughly 2 µM; with RH30 cells it was 3.2 µM; with RH4 cells [6], 0.812 µM. Besides, in [5], the “Avg Absorbance @ 1 μM, ALK-Luc” value was 55.9. Besides, the “Avg Absorbance @ 10 μM, ALK-Luc” value in data set [5] worked out at 34.0. In the data set on RH4 cells [7] (3 μM, 24 hours), the “PAX3-FOXO1 (Western blot)” value was “decreases”. For the same molecule, the “cleaved PARP (Western blot)” value with RH4 cells [7] (3 μM, 24 hours) is on record as “increases”.
